Format in all cases: in vivo
In assay [1] the test system is bromegrass, downy (downy bromegrass, Bromus tectorum). The assay is described as follows: Test D controlled growth environment herbicide test, pre- and postemergence. The following applies: for Bromegrass, Downy plant response rating / Plant response rating (scale of 0 to 100), Bromegrass, Downy: 31 g ai/ha. The gist of the method: (§1)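 Pre-emergence: seeds sown in silt loam soil were sprayed with compound in a non-phytotoxic solvent mix containing surfactant. Post-emergence: plants at 2 to 18 cm (1- to 4-leaf stage) in peat moss/vermiculite medium got the same formulation. Visual 0–100 rating versus controls after 14 to 21 d.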

For assay [2], the system named is wild poinsettia (Euphorbia heterophylla). The assay is described as follows: Test E greenhouse herbicide test, pre- and postemergence. The gist of the method:
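Visual ratings, 0 for no effect up to 100 for complete control, were taken relative to controls 14 to 21 d after greenhouse treatment. Applications used a surfactant-containing non-phytotoxic solvent formulation, sprayed either preemergence on silt loam-sown seed or postemergence on 1- to 4-leaf plants 2-18 cm tall in peat-based potting medium.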

Assay [3] has as its system geranium, cutleaf (cutleaf geranium, Geranium dissectum). The assay is described as follows: Test D controlled growth environment herbicide test, pre- and postemergence. The gist of the method:
as §1

Assay [4] concerns Canada thistle (Cirsium arvense). The description is as above. The following applies: for Canada Thistle plant response rating / Plant response rating (scale of 0 to 100), Canada Thistle: 31 g ai/ha. The gist of the method:
as §1

[5] abbreviates: Postemergence, scale 0 to 100 (0 no effect, 100 complete control).
Where [6] appears, read: Postemergence, 125 g ai/ha, visual rating on scale 0 (no effect) to 100 (complete control), 14 to 21 d.
Where [7] appears, read: Postemergence, 250 g ai/ha, scale 0 to 100 (0 no effect, 100 complete control).
The mark [8] stands for this setting: Preemergence, 62 g ai/ha, scale 0 to 100 (0 no effect, 100 complete control).
Where [9] appears, read: Preemergence, 125 g ai/ha, scale 0 to 100 (0 no effect, 100 complete control).
The mark [10] stands for this setting: Preemergence, 250 g ai/ha, scale 0 to 100 (0 no effect, 100 complete control).
[11] abbreviates: postemergence, 62 g ai/ha, scale 0 to 100, 0 no effect, 100 complete control.
Setting [12] is: 62 g ai/ha, Postemergence, scale 0 to 100 (0 no effect, 100 complete control).
The mark [13] stands for this setting: 62 g ai/ha, Preemergence, scale 0 to 100 (0 no effect, 100 complete control).
The mark [14] stands for this setting: 125 g ai/ha, Postemergence, scale 0 to 100 (0 no effect, 100 complete control).
Setting [15] is: 125 g ai/ha, Preemergence, scale 0 to 100 (0 no effect, 100 complete control).
Where [16] appears, read: 250 g ai/ha, Postemergence, scale 0 to 100 (0 no effect, 100 complete control).
[17] abbreviates: Postemergence, 31 g ai/ha, visual, scale 0 no effect to 100 complete control.
[18] abbreviates: Preemergence, 31 g ai/ha, scale 0 to 100, 0 no effect, 100 complete control.
[19] abbreviates: Preemergence, 250 g ai/ha, visual, scale 0 no effect to 100 complete control.
Where [20] appears, read: Postemergence, 31 g ai/ha, scale 0 to 100 (0 no effect, 100 complete control).
The mark [21] stands for this setting: Postemergence, 16 g ai/ha, visual, scale 0 no effect to 100 complete control.

Each structure is given as a SMILES string.

The values that follow come from patent US10597388B2, “Pyridazinone herbicides” (FMC CORPORATION, priority 2014, dated 2020).

Regarding `COC(=O)Oc1c(C)nn(C)c(=O)c1-c1c(C)sc2c(C)cc(C)cc12` [Compound 81], the “Bromegrass, Downy plant response rating” value in assay [1] (setting [5]) was 15. In addition, the “Plant response rating, Bromegrass, Downy” value in assay [1] (setting [6]) amounted to 65; in assay [1] (setting [7]), 75; in assay [1] (setting [8]) it was 45; in assay [1] (setting [9]), 15; in assay [1] (setting [10]), 75; in assay [1] (setting [11]), 35. In addition, the “Plant response rating (scale of 0 to 100), Bromegrass, Downy” value in assay [1] (Preemergence) is given as 20. Besides, the “Plant response rating, Poinsettia, Wild” value is listed as 40 in assay [2] (setting [12]); 5 in assay [2] (setting [13]); 40 in assay [2] (setting [14]); 30 in assay [2] (setting [15]); 50 in assay [2] (setting [16]); 30 in assay [2] (setting [17]). For the same molecule, the figures for the “Plant response rating, Poinsettia, Wild” value in assay [2] (setting [18]) and in assay [2] (setting [19]) were 0 and 60, respectively.

On to `CCOC(=O)Oc1c(C)nn(C)c(=O)c1-c1c(C)sc2ccc(C)cc12` [Compound 82], for which, in assay [1] (setting [5]), the “Bromegrass, Downy plant response rating” value is listed as 55. For the same molecule, the “Plant response rating, Bromegrass, Downy” value in assay [1] (setting [6]) came out at 60; in assay [1] (setting [7]) it was 60; in assay [1] (setting [8]), 65; in assay [1] (setting [9]), 80; in assay [1] (setting [10]) it was 85; in assay [1] (setting [11]), 45. Also, the “Plant response rating (scale of 0 to 100), Bromegrass, Downy” value in assay [1] (Preemergence) was 45. Moreover, the “Plant response rating, Poinsettia, Wild” value in assay [2] (setting [12]) is listed as 30; in assay [2] (setting [13]), 0; in assay [2] (setting [14]), 40; in assay [2] (setting [15]) it was 0; in assay [2] (setting [16]), 50; in assay [2] (setting [17]), 40. The “Plant response rating, Poinsettia, Wild” value in assay [2] (setting [18]) came out at 0; in assay [2] (setting [19]) it was 20.

Turning to `C#CCOC(=O)Oc1c(C)nn(C)c(=O)c1-c1c(C)sc2ccc(C)cc12` [Compound 87], the “Bromegrass, Downy plant response rating” value in assay [1] (setting [5]) was 45. The “Plant response rating, Bromegrass, Downy” value was 65 in assay [1] (setting [6]); 65 in assay [1] (setting [7]); 65 in assay [1] (setting [8]); 75 in assay [1] (setting [9]); 80 in assay [1] (setting [10]); 65 in assay [1] (setting [11]). The “Plant response rating (scale of 0 to 100), Bromegrass, Downy” value in assay [1] (Preemergence) came to 25. Moreover, the “Plant response rating, Poinsettia, Wild” value was 15 in assay [2] (setting [13]), 15 in assay [2] (setting [15]), 0 in assay [2] (setting [18]) and 20 in assay [2] (setting [19]).

Regarding `CC(=O)Oc1c(C)nn(C)c(=O)c1-c1ccc(F)c2ccccc12` [Compound 90], the “Geranium, Cutleaf plant response rating” value in assay [3] (setting [20]) worked out at 45. Further, the “Plant response rating, Geranium, Cutleaf” value came out at 75 in assay [3] (setting [6]); 95 in assay [3] (setting [7]); 65 in assay [3] (setting [9]); 90 in assay [3] (setting [10]); 65 in assay [3] (setting [11]). Besides, the “Plant response rating (scale of 0 to 100), Geranium, Cutleaf” value in assay [3] (Preemergence, 31 g ai/ha) stood at 0; in assay [3] (Preemergence, 62 g ai/ha) it was 60. In addition, the “Bromegrass, Downy plant response rating” value in assay [1] (setting [5]) is given as 20. Further, the “Plant response rating, Bromegrass, Downy” value in assay [1] (setting [6]) is given as 40; in assay [1] (setting [7]), 55; in assay [1] (setting [8]), 20; in assay [1] (setting [9]), 55; in assay [1] (setting [10]), 95; in assay [1] (setting [11]), 30. In assay [1] (Preemergence), the “Plant response rating (scale of 0 to 100), Bromegrass, Downy” value is 15. Besides, in assay [4] (setting [5]), the “Canada Thistle plant response rating” value is given as 98. In addition, the “Plant response rating, Canada Thistle” value in assay [4] (setting [6]) is given as 100; in assay [4] (setting [7]) it was 98; in assay [4] (setting [8]), 95; in assay [4] (setting [9]), 100; in assay [4] (setting [10]), 100; in assay [4] (setting [11]), 100. Besides, the “Plant response rating (scale of 0 to 100), Canada Thistle” value in assay [4] (Preemergence) is given as 50. Moreover, the “Plant response rating, Poinsettia, Wild” value in assay [2] (setting [12]) is given as 50; in assay [2] (setting [14]), 60; in assay [2] (setting [21]), 20; in assay [2] (setting [17]) it was 35.

Turning to `CCC(=O)Oc1c(C)nn(C)c(=O)c1-c1c(C)sc2ccc(Cl)cc12` [Compound 109], the “Bromegrass, Downy plant response rating” value in assay [1] (setting [5]) came out at 30. The “Plant response rating, Bromegrass, Downy” value in assay [1] (setting [6]) amounted to 60; in assay [1] (setting [7]) it was 75; in assay [1] (setting [8]) it was 30; in assay [1] (setting [9]), 65; in assay [1] (setting [10]) it was 65; in assay [1] (setting [11]), 30. In addition, the “Plant response rating (scale of 0 to 100), Bromegrass, Downy” value in assay [1] (Preemergence) is 0. Also, the “Plant response rating, Poinsettia, Wild” value in assay [2] (setting [12]) came out at 45; in assay [2] (setting [14]) it was 50; in assay [2] (setting [15]), 30; in assay [2] (setting [21]) it was 0; in assay [2] (setting [17]) it was 25; in assay [2] (Preemergence, 16 g ai/ha, scale 0 to 100, 0 no effect, 100 complete control), 10. Also, the “Plant response rating, Poinsettia, Wild” value stood at 10 in assay [2] (setting [18]) and 25 in assay [2] (Preemergence, scale 0 to 100, 0 no effect, 100 complete control).

Take `CC(=O)Oc1c(Br)nn(C)c(=O)c1-c1c(C)ccc2ccccc12` [Compound 129]: the “Geranium, Cutleaf plant response rating” value in assay [3] (setting [20]) was 60. The “Plant response rating, Geranium, Cutleaf” value in assay [3] (setting [6]) stood at 75; in assay [3] (setting [7]), 75; in assay [3] (setting [9]), 70; in assay [3] (setting [10]), 95; in assay [3] (setting [11]), 70. For the same molecule, the “Plant response rating (scale of 0 to 100), Geranium, Cutleaf” value is 0 in assay [3] (Preemergence, 31 g ai/ha) and 0 in assay [3] (Preemergence, 62 g ai/ha). Also, the “Bromegrass, Downy plant response rating” value in assay [1] (setting [5]) amounted to 25. In addition, the “Plant response rating, Bromegrass, Downy” value in assay [1] (setting [6]) turned out to be 65; in assay [1] (setting [7]) it was 80; in assay [1] (setting [8]), 15; in assay [1] (setting [9]), 65; in assay [1] (setting [10]), 80; in assay [1] (setting [11]), 40. For the same molecule, in assay [1] (Preemergence), the “Plant response rating (scale of 0 to 100), Bromegrass, Downy” value came out at 15. The “Canada Thistle plant response rating” value in assay [4] (setting [5]) was found to be 100. The “Plant response rating, Canada Thistle” value in assay [4] (setting [6]), in assay [4] (setting [7]), in assay [4] (setting [8]), in assay [4] (setting [9]), in assay [4] (setting [10]) and in assay [4] (setting [11]) was 100 in each case. Besides, the “Plant response rating (scale of 0 to 100), Canada Thistle” value in assay [4] (Preemergence) is on record as 80.
